ChEMBL document CHEMBL5291721, “A preclinical secondary pharmacology resource illuminates target-adverse drug reaction associations of marketed drugs” (Nat Commun, 2023)

What was measured:
[1] = target: T1, Cholecystokinin receptor type A (Homo sapiens, UniProt P32238)
T1 sequence (P32238 whole entry): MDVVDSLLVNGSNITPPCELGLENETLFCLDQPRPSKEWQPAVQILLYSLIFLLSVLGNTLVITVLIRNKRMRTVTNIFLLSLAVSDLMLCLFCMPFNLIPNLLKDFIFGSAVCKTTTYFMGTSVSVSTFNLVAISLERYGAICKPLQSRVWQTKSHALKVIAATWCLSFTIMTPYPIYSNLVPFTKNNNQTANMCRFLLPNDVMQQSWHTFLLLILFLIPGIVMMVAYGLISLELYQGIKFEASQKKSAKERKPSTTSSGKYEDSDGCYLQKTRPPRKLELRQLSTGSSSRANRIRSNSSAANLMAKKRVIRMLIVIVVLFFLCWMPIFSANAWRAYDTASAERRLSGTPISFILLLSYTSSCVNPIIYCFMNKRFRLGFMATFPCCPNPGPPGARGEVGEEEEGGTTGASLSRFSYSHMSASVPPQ

[2] = target: T2, Neuropeptide Y receptor type 1 (Homo sapiens, UniProt P25929); details: read-out: AC50
T2 sequence (P25929 whole entry): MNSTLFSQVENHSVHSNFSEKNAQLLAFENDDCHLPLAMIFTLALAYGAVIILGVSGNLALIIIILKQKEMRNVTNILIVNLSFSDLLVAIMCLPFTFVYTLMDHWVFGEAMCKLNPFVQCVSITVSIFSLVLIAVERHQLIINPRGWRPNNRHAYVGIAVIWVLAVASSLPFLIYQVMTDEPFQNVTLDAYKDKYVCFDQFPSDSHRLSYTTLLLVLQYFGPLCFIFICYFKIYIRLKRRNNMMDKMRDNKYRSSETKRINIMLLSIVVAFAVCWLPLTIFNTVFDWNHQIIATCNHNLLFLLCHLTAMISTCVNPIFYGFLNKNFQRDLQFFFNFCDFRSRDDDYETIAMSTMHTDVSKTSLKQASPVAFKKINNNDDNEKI

[3] = target: Beta-1 adrenergic receptor (Homo sapiens, UniProt P08588); assay type: functional
Progesterone receptor = target: T3, Progesterone receptor (Homo sapiens, UniProt P06401); assay type: functional
T3 sequence (P06401 whole entry): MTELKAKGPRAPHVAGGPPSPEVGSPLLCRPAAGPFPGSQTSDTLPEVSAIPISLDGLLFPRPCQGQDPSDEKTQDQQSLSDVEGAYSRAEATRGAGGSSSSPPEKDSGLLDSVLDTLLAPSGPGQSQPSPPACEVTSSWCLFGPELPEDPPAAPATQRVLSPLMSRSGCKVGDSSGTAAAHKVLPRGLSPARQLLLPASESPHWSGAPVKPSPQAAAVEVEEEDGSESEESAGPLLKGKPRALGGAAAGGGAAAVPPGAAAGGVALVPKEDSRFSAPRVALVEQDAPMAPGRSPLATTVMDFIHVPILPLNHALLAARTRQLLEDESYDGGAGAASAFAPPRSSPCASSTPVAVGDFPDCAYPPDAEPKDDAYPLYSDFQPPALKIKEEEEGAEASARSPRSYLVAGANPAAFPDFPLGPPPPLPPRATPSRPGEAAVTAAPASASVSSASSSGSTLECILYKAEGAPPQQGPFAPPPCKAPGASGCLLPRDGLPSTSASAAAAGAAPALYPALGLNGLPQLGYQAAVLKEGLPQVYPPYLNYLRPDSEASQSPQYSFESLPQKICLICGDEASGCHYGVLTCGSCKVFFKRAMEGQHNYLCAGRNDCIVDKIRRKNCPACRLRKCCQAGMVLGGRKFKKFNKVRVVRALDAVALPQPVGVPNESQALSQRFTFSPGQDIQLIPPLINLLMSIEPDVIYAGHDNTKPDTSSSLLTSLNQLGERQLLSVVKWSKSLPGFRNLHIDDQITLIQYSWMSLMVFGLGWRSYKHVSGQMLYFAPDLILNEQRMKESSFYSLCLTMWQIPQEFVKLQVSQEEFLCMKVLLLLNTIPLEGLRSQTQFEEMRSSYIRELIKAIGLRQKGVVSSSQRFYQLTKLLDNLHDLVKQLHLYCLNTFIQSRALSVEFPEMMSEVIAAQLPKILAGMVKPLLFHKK

[4] = target: T4, Muscarinic acetylcholine receptor M2 (Homo sapiens, UniProt P08172); assay type: functional, cell-based
T4 sequence (P08172 whole entry): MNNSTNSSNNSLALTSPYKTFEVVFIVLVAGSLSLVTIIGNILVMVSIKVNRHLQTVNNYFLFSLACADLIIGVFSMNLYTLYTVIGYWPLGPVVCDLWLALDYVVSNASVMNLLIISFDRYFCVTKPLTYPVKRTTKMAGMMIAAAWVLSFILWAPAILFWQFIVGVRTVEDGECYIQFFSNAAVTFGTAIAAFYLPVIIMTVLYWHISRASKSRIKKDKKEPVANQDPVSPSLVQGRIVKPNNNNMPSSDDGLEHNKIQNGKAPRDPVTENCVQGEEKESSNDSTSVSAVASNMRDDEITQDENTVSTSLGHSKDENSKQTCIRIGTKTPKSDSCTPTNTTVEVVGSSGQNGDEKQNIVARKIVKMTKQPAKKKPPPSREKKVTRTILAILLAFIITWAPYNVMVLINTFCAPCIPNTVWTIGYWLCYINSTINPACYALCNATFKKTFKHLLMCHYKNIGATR

D(3) dopamine receptor = D(3) dopamine receptor (Homo sapiens, UniProt P35462)
Adenosine receptor A2a = Adenosine receptor A2a (Homo sapiens, UniProt P29274)
[5] = target: Delta-type opioid receptor (Homo sapiens, UniProt P41143)
[6] = target: T5, Gastrin/cholecystokinin type B receptor (Homo sapiens, UniProt P32239)
T5 sequence (P32239 whole entry): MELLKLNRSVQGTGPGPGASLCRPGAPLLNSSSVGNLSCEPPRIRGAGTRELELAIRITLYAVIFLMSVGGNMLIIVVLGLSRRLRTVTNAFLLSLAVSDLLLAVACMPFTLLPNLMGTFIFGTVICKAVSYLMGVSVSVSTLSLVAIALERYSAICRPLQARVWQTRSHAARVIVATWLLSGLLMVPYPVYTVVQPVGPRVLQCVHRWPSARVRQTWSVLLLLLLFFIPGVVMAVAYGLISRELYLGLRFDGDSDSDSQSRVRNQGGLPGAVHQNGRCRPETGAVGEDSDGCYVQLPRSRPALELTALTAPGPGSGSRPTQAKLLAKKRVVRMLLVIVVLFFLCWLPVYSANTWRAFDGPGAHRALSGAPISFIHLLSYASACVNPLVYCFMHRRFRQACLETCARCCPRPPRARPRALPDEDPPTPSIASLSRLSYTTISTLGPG

[7] = target: Beta-2 adrenergic receptor (Homo sapiens, UniProt P07550)
Note: assay procedure not described here.

Sequence of Beta-2 adrenergic receptor (P07550 whole entry): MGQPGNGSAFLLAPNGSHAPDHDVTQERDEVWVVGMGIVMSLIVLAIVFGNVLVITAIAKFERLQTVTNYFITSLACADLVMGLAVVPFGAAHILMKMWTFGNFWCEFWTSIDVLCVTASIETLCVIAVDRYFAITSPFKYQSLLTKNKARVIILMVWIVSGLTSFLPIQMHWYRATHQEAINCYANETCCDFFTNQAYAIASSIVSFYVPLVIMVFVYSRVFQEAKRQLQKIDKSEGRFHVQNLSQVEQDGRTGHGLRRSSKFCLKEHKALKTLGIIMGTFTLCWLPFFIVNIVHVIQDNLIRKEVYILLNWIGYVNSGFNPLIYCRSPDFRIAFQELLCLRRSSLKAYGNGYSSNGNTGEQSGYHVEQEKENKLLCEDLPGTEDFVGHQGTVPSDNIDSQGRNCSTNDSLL
Sequence of Beta-1 adrenergic receptor (P08588 whole entry): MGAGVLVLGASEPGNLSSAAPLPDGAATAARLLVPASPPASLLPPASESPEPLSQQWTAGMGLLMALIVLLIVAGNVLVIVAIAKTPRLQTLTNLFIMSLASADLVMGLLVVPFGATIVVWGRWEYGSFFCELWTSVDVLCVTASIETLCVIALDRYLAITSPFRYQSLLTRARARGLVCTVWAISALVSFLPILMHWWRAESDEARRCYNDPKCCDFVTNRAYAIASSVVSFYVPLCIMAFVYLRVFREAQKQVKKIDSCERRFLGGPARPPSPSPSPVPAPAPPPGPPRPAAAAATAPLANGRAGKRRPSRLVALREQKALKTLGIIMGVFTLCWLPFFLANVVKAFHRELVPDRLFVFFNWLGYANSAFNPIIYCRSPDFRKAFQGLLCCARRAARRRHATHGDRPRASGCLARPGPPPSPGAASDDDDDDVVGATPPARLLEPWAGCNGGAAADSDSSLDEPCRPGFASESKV
Sequence of Adenosine receptor A2a (P29274 whole entry): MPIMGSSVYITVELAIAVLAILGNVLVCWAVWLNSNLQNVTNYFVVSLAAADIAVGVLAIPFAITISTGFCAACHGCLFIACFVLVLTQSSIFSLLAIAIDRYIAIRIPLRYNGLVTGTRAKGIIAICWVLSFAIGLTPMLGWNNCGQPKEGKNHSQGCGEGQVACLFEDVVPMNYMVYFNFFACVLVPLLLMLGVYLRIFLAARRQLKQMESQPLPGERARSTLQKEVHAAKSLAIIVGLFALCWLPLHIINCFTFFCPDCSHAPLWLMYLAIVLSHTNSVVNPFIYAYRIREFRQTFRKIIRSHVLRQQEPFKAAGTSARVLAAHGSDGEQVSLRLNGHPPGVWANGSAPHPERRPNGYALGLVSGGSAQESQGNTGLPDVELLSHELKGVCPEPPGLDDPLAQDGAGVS
Sequence of Delta-type opioid receptor (P41143 whole entry): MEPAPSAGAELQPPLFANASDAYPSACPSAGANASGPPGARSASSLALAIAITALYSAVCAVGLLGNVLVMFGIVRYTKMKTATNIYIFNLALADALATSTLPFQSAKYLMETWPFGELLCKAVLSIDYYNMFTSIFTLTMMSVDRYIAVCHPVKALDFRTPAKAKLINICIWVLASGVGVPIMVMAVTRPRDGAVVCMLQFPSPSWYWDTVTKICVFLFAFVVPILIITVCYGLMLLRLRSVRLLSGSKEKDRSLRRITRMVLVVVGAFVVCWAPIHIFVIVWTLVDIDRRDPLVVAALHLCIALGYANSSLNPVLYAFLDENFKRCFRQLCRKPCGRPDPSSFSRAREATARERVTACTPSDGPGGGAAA
Sequence of D(3) dopamine receptor (P35462 whole entry): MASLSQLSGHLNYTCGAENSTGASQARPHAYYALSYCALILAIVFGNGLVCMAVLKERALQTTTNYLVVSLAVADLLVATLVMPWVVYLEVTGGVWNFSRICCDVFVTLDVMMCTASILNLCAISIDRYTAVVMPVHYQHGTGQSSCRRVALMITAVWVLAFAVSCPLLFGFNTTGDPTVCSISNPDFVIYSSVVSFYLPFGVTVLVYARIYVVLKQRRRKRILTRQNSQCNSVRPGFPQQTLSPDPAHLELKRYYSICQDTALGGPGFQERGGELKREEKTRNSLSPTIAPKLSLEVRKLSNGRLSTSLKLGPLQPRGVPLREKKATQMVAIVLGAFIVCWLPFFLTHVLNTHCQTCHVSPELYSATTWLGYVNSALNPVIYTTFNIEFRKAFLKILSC

Structure (SMILES)	AC50 [1] [µM]	AC50 [2] [µM]	AC50 [3] [µM]	AC50 (Progesterone receptor) [µM]	AC50 [4] [µM]	AC50 (D(3) dopamine receptor) [µM]	AC50 (Adenosine receptor A2a) [µM]	AC50 [5] [µM]	AC50 [6] [µM]	AC50 [7] [µM]
C#CCOc1ccc(N)cc1C(=O)NCCCC [PARSALMIDE]	> 30	> 30	> 30	> 30	> 30	> 30	> 30	> 30	> 30	
OCc1cc(C(O)CNCCCCCCOCCCCc2ccccc2)ccc1O (stereo unspecified) [SALMETEROL]	> 30	> 30		> 30		8.9	> 30	> 30	> 30	
Nc1cc(-c2ccncc2)c[nH]c1=O [INAMRINONE]	> 30	> 30	> 10		> 10	> 30	> 30	> 30	> 30	> 10
COc1cc2c(cc1OC)C(CCc1ccc(Cl)cc1)N(C)CC2 (stereo unspecified) [METHOPHOLINE]	> 30	> 30	> 30	> 30	> 10	> 30	> 30	> 30		> 30
CN(C(=O)c1c(O)c2ccccc2n(C)c1=O)c1ccccc1 [ROQUINIMEX]			> 30	29			> 30			
Cc1ncc2n1-c1ccc(Cl)cc1C(c1ccccc1F)=NC2 [MIDAZOLAM]	> 30	> 30	> 10		> 10	10	> 30	> 30	> 30	> 10
CC(=O)[C@]1(O)Cc2c(O)c3c(c(O)c2[C@@H](O[C@H]2C[C@H](N)[C@H](O)[C@H](C)O2)C1)C(=O)c1ccccc1C3=O [IDARUBICIN]	> 10	> 10	> 30			17	> 30	19	> 30	> 30
Oc1ccc2c(c1)[C@@]13CCCC[C@@]1(O)[C@@H](C2)N(CC1CCC1)CC3 [BUTORPHANOL]	> 30	> 30	> 30	> 30	> 30	> 30	> 30	0.18	> 30	
CC(=O)OCC(=O)[C@@]1(O)[C@H](C)C[C@H]2[C@@H]3CCC4=CC(=O)C=C[C@]4(C)[C@@]3(F)[C@@H](O)C[C@@]21C [DEXAMETHASONE ACETATE]	> 30	> 30	> 10		> 10	> 30	> 30	> 30	> 30	> 10
Cn1c(=O)cc(N2CCC[C@@H](N)C2)n(Cc2ccccc2C#N)c1=O [ALOGLIPTIN]	> 30	> 30	> 10			> 10	> 30	> 10	> 30	> 10
COc1cc2ncnc(Nc3ccc(F)c(Cl)c3)c2cc1NC(=O)/C=C/CN1CCCCC1 [DACOMITINIB ANHYDROUS]			> 30	> 10	> 10		> 30			
CCCCCC(=O)O[C@]1(C(C)=O)CC[C@H]2[C@@H]3CCC4=CC(=O)CC[C@]4(C)[C@H]3CC[C@@]21C [HYDROXYPROGESTERONE CAPROATE]	> 30	> 30	> 30		> 30	> 30	> 30	> 30	> 30	> 30
Cn1cnc2c(F)c(Nc3ccc(Br)cc3Cl)c(C(=O)NOCCO)cc21 [SELUMETINIB]							> 30			> 10
NC(=O)CN1CCCC1=O	> 30	> 30	> 30	> 30	> 30	> 30	> 30	> 30	> 30	
CC(=O)[C@@]1(O)CC[C@H]2[C@@H]3C=C(Cl)C4=CC(=O)[C@@H]5C[C@@H]5[C@]4(C)[C@H]3CC[C@@]21C [CYPROTERONE]	> 10	> 10	> 10		> 10	> 30	> 10	> 30		> 10
CCOC(=O)O[C@]1(C(=O)OCCl)CC[C@H]2[C@@H]3CCC4=CC(=O)C=C[C@]4(C)[C@H]3[C@@H](O)C[C@@]21C [LOTEPREDNOL ETABONATE]	> 30	> 30	> 30		> 30	> 30	> 30	> 30	> 30	> 30
CCN1CCCC1CNC(=O)c1cc(S(=O)(=O)CC)c(N)cc1OC (stereo unspecified) [AMISULPRIDE]		> 30	> 30	> 30	> 30		> 30	> 30	> 30	
CCN(CC)CCN1C(=O)CN=C(c2ccccc2F)c2cc(Cl)ccc21 [FLURAZEPAM]	> 30	> 30	> 10		> 10	8.4	> 30	> 30	> 30	> 10
COc1ccc2nc3cc(Cl)ccc3c(Nc3cc(CN4CCCC4)c(O)c(CN4CCCC4)c3)c2n1 [PYRONARIDINE]	> 30	> 30	> 30		15	21	> 30	> 30	> 30	> 30
